Here are results for 2 compounds from paper PMC8631675, “Neuroprotective effects of some epigenetic modifying drugs’ on Chlamydia pneumoniae-induced neuroinflammation: A novel model” (PLoS ONE, 2021).

Where two headings read alike, the source gives them in different places.

The test system of assay [1] is differentiated SH-SY5Y cells. The assay can be described thus: Annexin V-PI staining of Aβ-induced cell death, flow cytometry. The class given is cell-based, human. As to conditions: pretreatment (drugs 100 nM; LPS 100 ng/ml + IFN-γ; CFS 1 μg/ml + IFN-γ) + 5 μM Aβ 24 h. As for the experimental part:
To determine neuronal apoptosis associated with Aβ exposure, 25x10^3 differentiated SH-SY5Y cells were seeded in 24-well plates and Aβ was applied. After 24 h, cells were trypsinized and staining was performed according to the CF 488A Annexin V and PI Apoptosis Kit (Biotium, USA, Cat. No: 30061) protocol. After washing the cells with 1xPBS, the working solution was prepared by diluting the PI with Annexin V binding buffer included in the kit. 5 μl Annexin V and 2 μl PI working solution were added to the centrifuge tubes and binded with 100 μl Annexin V binding buffer. After the samples were incubated for 30 minutes on ice and in the dark, 400 μl of Annexin V binding buffer was added to each tube and the samples were measured and analyzed in a BD Accuri™ C6 flow cytometry device.
A general note: Flow cytometry measures light scatter and fluorescence of single cells or particles in a stream.

In assay [2] the test system is differentiated SH-SY5Y cells. The assay can be described thus: Cell proliferation (cytotoxicity) analysis with xCELLigence, SH-SY5Y. The class given is cell-based, human. Particulars: for IC50: Homo sapiens, SH-SY5Y. On the procedure:
(§1) Cell proliferation analysis was performed with xCELLigence Real-Time Cell Analysis System to assess TSA, RG108, givinostat, and rifampin concentrations for use in both models. Differentiated SH-SY5Y and HMC3 microglia cells were seeded at a 5x10^3 density per well and incubated 24 h until CI values reached a log phase. The system stopped at the end of 24 h, 100, 10 and 1 μM TSA, givinostat, RG108 and rifampin were applied on current media and the cell viability was tracked. […] Simultaneously, slope plots were drawn using the CI values at 24 and 48 hours, and the statistical significance of the values discovered by assuming the average CI values of the control wells to be 100% was calculated.

The test system of assay [3] is low density lipoprotein receptor-related protein 1 (LRP-1) and P-glycoprotein (P-gp). On the set-up: method as in PMID 22504320. As to conditions: by upregulating LRP-1 and P-gp; cited from earlier work.
Assay [4] relates to differentiated SH-SY5Y cells. The assay is described as follows: Cell viability against Aβ-induced neurotoxicity, xCELLigence. The assay is classed as cell-based, human. Particulars: 24 h pretreatment (drugs 100 nM; CFS 1 μg/ml + IFN-γ; LPS 100 ng/ml + IFN-γ), then 5 μM Aβ (1–42) aggregates 24 h. On the procedure: Pathological deterioration in AD is mainly associated with overproduction of the Aβ peptide and the Aβ (1–42) variant is the toxic form that is more predominant in Alzheimer’s patients. In this study, a modified oligomeric Aβ (1–42) neurotoxicity analysis protocol was applied in order to elucidate the effects of treatment groups on SH-SY5Y cell viability in the presence of Aβ [56]. In order to model Aβ-induced neurotoxicity in vitro, an oligomeric form of the Aβ1–42 peptide was prepared by diluting with ice-cold Ham’s F12 Nutrient Mixture medium dissolved in PBS containing 0.02 M NaOH at a final concentration of 50 μM and kept in a 37°C incubator for 7 days to form peptide aggregates prior to the experiments. 5x10^3 SH-SY5Y cells were differentiated inside the xCELLigence instrument for 5 days and treated with 100 nM TSA, RG108, givinostat, rifampin; 100 ng/ml LPS+IFN-ɣ or 1 μg/ml CFS+IFN-ɣ for 24 h in order to evaluate neuroprotection. The co-culture was performed in the same way as the neuroinflammation model. Neurotoxicity was obtained instead of neuroinflammation by diluting to 5 μM with fresh medium and adding Aβ1–42 aggregates to the wells for 24 h in 100 μl of medium. Cell viability data was then monitored for 24 h and analyzed within the instrument.

In a further assay the test system is HMC3 microglia cells. The assay can be described thus: Cell proliferation (cytotoxicity) analysis with xCELLigence, HMC3. The assay is classed as cell-based, human. As to conditions: for IC50: Homo sapiens. As for the experimental part:
as §1

The subject of another assay is SH-SY5Y cells. The assay is described as follows: Total ROS/Superoxide detection. The assay is classed as cell-based, human. As for the experimental part:
The Total ROS/Superoxide Detection Kit (ENZ-51010, Enzo) was used according to the kit process for evaluating the protective effects of the treatment groups on SH-SY5Y cells seeded at a 2x10^4 density per well in 96-well plates and Aβ was applied. ROS inhibitor N-acetyl cysteine (NAC) was applied at 5 mM concentration to negative control groups 30 minutes before the experiment and after incubation, 100 μL of “ROS/Superoxide Detection Solution” was added to the wells in the kit. The same procedure was done without the application of ROS inhibitor. Fluorometric analysis of stained cells was analyzed with Cytation 3 Cell Imaging Multi-Mode Reader (BioTek) using 490/525 nm and 550/620 nm filter sets.

In a further assay the test system is mutated COS-7 cells. Further details: method as in PMID 27020329. As to conditions: mutated COS-7 cells expressing amyloid precursor protein; cited from earlier work.
The next assay relates to IL-8 gene expression. The assay can be described thus: RT-PCR IL-8 gene expression in HMC3 microglia cells. The assay is classed as cell-based, human. Particulars: 24 h. As for the experimental part:
(§2) LPS and/or proinflammatory cytokines like IFN-ɣ, have been used alone or in combination in most in vitro neuroinflammation models to study microglial activation. Therefore, the effects of lyophilized cell free supernatant (CFS)+IFN-ɣ combination, which was determined to increase IL-1β and CD218a cytokine levels most effectively, on IL-1β, TNF-α and IL-8 gene expressions were compared with LPS+IFN-ɣ combination in order to determine the activation concentration.
(§3) RNA isolations were performed in MagNA Pure Compact System (Roche, Germany) using MagNA Pure Compact RNA Isolation Kit® (Catalog No: 04802993001, Roche, Germany) after 24-h. The total RNA amounts of the samples were measured at 260 and 280 nm in the NanoDrop 2000® (Thermo Fisher, USA) spectrophotometer. cDNA was obtained using the Transcriptor High Fidelity cDNA Synthesis Kit® (Catalog no: 05091284001, Roche, Germany) following the kit protocol from […] RNA of each sample. After the cDNA samples were replicated by PCR method, the expression levels were determined with the LightCycler® 480 Real-Time PCR System (Roche, Germany) using the IL-1β, TNF-α and IL-8 primers (PRZ BioTech, Turkey). Actin beta (ACTB) was used as a housekeeping gene. Primer sequences and RT-PCR cycling conditions are shown in S1 and S2 Tables. Results were analyzed according to the changes in the amplification levels compared to the control group with the analysis software of the instrument.

In a further assay the test system is CD11b. The assay can be described thus: Active microglia marker CD11b in HMC3 cells by flow cytometry. The assay is classed as cell-based, human. As to conditions: 24 hours, control 10.1%. As for the experimental part:
HMC3 microglia cells were seeded in 12-well plates at a density of 75x10^3 cells per well and treated with treatment groups for 24 h. Then, cells were detached and centrifuged with Cell Staining Buffer (BioLegend, USA, Cat. No: 420201) for 5 minutes and the supernatant was discarded. Blocking was performed with 5 μl Human TruStain Fcx (BioLegend, USA, Cat. No: 422302) Fc receptor blocker solution diluted in 100 μl Cell Staining Buffer for 10 minutes at room temperature to reduce non-specific binding. The blocker was removed by centrifugation and the cells were stained with 5 μl PE anti-mouse/human CD11b Antibody (BioLegend, USA, Cat. No: 101208) diluted 1:5 in 20 μl Cell Staining Buffer for 15 minutes on ice in the dark. Then, the cells were washed 2 times with 2 ml Cell Staining Buffer and analyzed within 500 μl buffer using the BD Accuri ™ C6 flow cytometer.

For a further assay, the system named is SH-SY5Y cell. On the set-up: method as in PMID 31837307, PMID 32087283. Particulars: LPS alone; cited from earlier work.
Another assay has as its system IL-1β gene expression. The assay can be described thus: RT-PCR IL-1β gene expression in HMC3 microglia cells. As to conditions: 24 h. The class given is cell-based, human. As for the experimental part:
as §2, §3

The next assay concerns TNF-α gene expression. The assay can be described thus: RT-PCR TNF-α gene expression in HMC3 microglia cells. The assay is classed as cell-based, human. Particulars: 24 h. On the procedure:
as §2, §3

[5] abbreviates: HMC3, 10 ng/ml + 10 ng/ml IFN-ɣ.
Setting [6] is: HMC3, 100 ng/ml + 10 ng/ml IFN-ɣ.

Regarding `CO[C@H]1/C=C/O[C@@]2(C)Oc3c(C)c(O)c4c(O)c(c(/C=N/N5CCN(C)CC5)c(O)c4c3C2=O)NC(=O)/C(C)=C\C=C\[C@H](C)[C@H](O)[C@@H](C)[C@@H](O)[C@@H](C)[C@H](OC(C)=O)[C@@H]1C` [Rifampin, rifampin], in assay [1] (control 1.6%), the “Necrotic effect (Q5-UL)” value amounted to 8.1%. The “Apoptotic effect (early apoptosis + late apoptosis)” value in assay [1] (control 1.9%) is 5.8%. In addition, the “Percentage of living cells (Live)” value in [1] (control 96.5%) turned out to be 86.2%. In addition, the “Reduction of differentiated SH-SY5Y cell viability” value in assay [2] (1 μM, 24 hours) worked out at 30.28%; in [2] (1 μM, 48 hours), 17.16%; in assay [2] (10 μM, 24 hours), 46.98%; in [2] (10 μM, 48 hours), 25%; in [2] (100 μM, 24 hours) it was 97.24%; in assay [2] (100 μM, 48 hours), 98.61%. The IC50 in [2] (24 h, from CI values at 24th hour, 1, 10 and 100 μM tested, read-out: IC50 Values 24h SH-SY5Y) was greater than 400 µM; in assay [2] (48 h, from CI values at 48th hour, 1, 10 and 100 μM tested, read-out: IC50 Values 48h SH-SY5Y) it was 64.4 µM; in the assay with HMC3 microglia cells (HMC3, 24 h, from CI values at 24th hour, 1, 10 and 100 μM tested, read-out: IC50 Values 24h HMC3), 33.2 µM; in the assay on HMC3 microglia cells (HMC3, 48 h, from CI values at 48th hour, 1, 10 and 100 μM tested, read-out: IC50 Values 48h HMC3) it was 31 µM. In assay [3], the “Effect on Aβ clearance” value is “increasing Aβ clearance”. In addition, the “CI values compared to the control group” value in assay [4] is reported as 120.7%. For the same compound, the “Reduction of HMC3 cell viability compared to the control group” value in the assay on HMC3 microglia cells (10 μM, 24 hours) is reported as 12.72%; with HMC3 microglia cells (10 μM, 48 hours), 17.79%; in the assay on HMC3 microglia cells (100 μM, 24 hours), 15.74%; in the assay on HMC3 microglia cells (100 μM, 48 hours), 28.72%. In the assay with SH-SY5Y cells (30 minutes NAC 5 mM, treated (drugs 100 nM; LPS 100 ng/ml; CFS 1 μg/ml, with IFN-γ) prior to Aβ exposure), the “Increase of total amount of ROS compared to the control group, with NAC” value worked out at 0.25%. For the same compound, the “Decrease of total ROS amount according to the Aβ group” value with SH-SY5Y cells (cells treated (drugs 100 nM; LPS 100 ng/ml; CFS 1 μg/ml, with IFN-γ) before exposure to Aβ, without NAC) is given as 43.14%. In addition, the “Increase of total amount of ROS compared to the control group” value with SH-SY5Y cells (cells treated (drugs 100 nM; LPS 100 ng/ml; CFS 1 μg/ml, with IFN-γ) before exposure to Aβ, without NAC, not significant) was determined as 0.43%. The “Effect on Aβ, tau, and α-synuclein aggregation” value in the assay with mutated COS-7 cells is “minimize Aβ, tau, and α-synuclein aggregation”.
As to lipopolysaccharide [LPS], the “IL-8 expression level compared to the control group” value is listed as 3.07 fold in the assay on IL-8 gene expression (setting [5]); 3.88 fold in the assay with IL-8 gene expression (setting [6]); 13.64 fold in the assay on IL-8 gene expression (HMC3, 1 μg/ml + 10 ng/ml IFN-ɣ). Also, the “CD11b antibody levels (positive gate V-R)” value worked out at 42.4% in the assay on CD11b (setting [6]) and 23% with CD11b (HMC3, 1 μg/ml + 10 ng/ml IFN-ɣ). Also, the “Effect on SH-SY5Y cell viability” value in the assay on SH-SY5Y cell is “no effect”. Also, the “IL-1β expression level compared to the control group” value with IL-1β gene expression (setting [5]) is given as 1.64 fold; in the assay on IL-1β gene expression (setting [6]), 3.21 fold; in the assay on IL-1β gene expression (HMC3, 1 μg/ml + 10 ng/ml IFN-ɣ), 1.83 fold. Further, the “TNF-α expression level compared to the control group” value in the assay on TNF-α gene expression (setting [5]) came to 1.55 fold; in the assay on TNF-α gene expression (setting [6]), 1.41 fold; in the assay on TNF-α gene expression (HMC3, 1 μg/ml + 10 ng/ml IFN-ɣ), 0.82 fold.

Usually IC50 stands for the point on the concentration scale where inhibition reaches its midpoint.
